Source: patent US9827235B2, “Pharmaceutical compositions comprising antibacterial agents” (WOCKHARDT LIMITED, priority 2013, dated 2017)
Read-outs that look alike come from different tables or passages of the source.

What was measured:
Format in all cases: cell-based
P. aeruginosa S 508 = assay: MIC on Muller Hinton Agar (CLSI); settings: Pseudomonas aeruginosa
Experimental: (§1) The antibacterial activity of combinations according to the invention was investigated against various bacterial strains. In a typical study, minimum inhibitory concentrations (MIC) were determined using Muller Hinton Agar (MHA) (BD, USA) according to Clinical and Laboratory Standards Institute (CLSI) recommendations, (Clinical and Laboratory Standards Institute (CLSI), Performance Standards for Antimicrobial Susceptibility Testing, 20th Informational Supplement, M 100-S20, Volume 30, No. 1, 2010). In short, the inocula were adjusted to deliver about 10^4 colony forming units (CFU) per spot with a multipoint inoculator (Applied Quality Services, UK). The plates were pored with doubling concentration range of the test combinations according to invention containing MHA. The plates were inoculated and were incubated at 35° C. for 18 hours.

P. aeruginosa Q-111 = assay: MIC on Muller Hinton Agar (CLSI); settings: Pseudomonas aeruginosa
Experimental: as §1

E. coli S 33 = assay: MIC on Muller Hinton Agar (CLSI); settings: Escherichia coli
Experimental: as §1

P. aeruginosa S 504 = assay: MIC on Muller Hinton Agar (CLSI); settings: Pseudomonas aeruginosa
Experimental: as §1

K. pneumoniae B 77 = assay: MIC on Muller Hinton Agar (CLSI); settings: Klebsiella pneumoniae
Experimental: as §1

[1] = test system: P. aeruginosa H 113720186; assay: MIC on Muller Hinton Agar (CLSI); settings: Pseudomonas aeruginosa
Experimental: as §1

P. aeruginosa S 513 = assay: MIC on Muller Hinton Agar (CLSI); settings: Pseudomonas aeruginosa
Experimental: as §1

K. pneumoniae B 88 = assay: MIC on Muller Hinton Agar (CLSI); settings: Klebsiella pneumoniae
Experimental: as §1

K. pneumoniae M 3 = assay: MIC on Muller Hinton Agar (CLSI); settings: Klebsiella pneumoniae
Experimental: as §1

E. coli S 330 = assay: MIC on Muller Hinton Agar (CLSI); settings: Escherichia coli
Experimental: as §1

E. coli S 16 = assay: MIC on Muller Hinton Agar (CLSI); settings: Escherichia coli
Experimental: as §1

E. coli S 35 = assay: MIC on Muller Hinton Agar (CLSI); settings: Escherichia coli
Experimental: as §1

E. coli M 44 = assay: MIC on Muller Hinton Agar (CLSI); settings: Escherichia coli
Experimental: as §1

K. pneumoniae S 48 = assay: MIC on Muller Hinton Agar (CLSI); settings: Klebsiella pneumoniae
Experimental: as §1

K. pneumoniae S 50 = assay: MIC on Muller Hinton Agar (CLSI); settings: Klebsiella pneumoniae
Experimental: as §1

K. pneumoniae NCTC 13439 = assay: MIC on Muller Hinton Agar (CLSI); settings: Klebsiella pneumoniae
Experimental: as §1

E. coli S 30 = assay: MIC on Muller Hinton Agar (CLSI); settings: Escherichia coli
Experimental: as §1

[2] = test system: highly resistant strains of E. coli, K. pneumonia and P. aeruginosa; assay: MIC, summary over the strain panel
Experimental: as §1

[3] = test system: clinical isolate of K. pneumoniae B 88 producing metallo beta-lactamases [SHV, TEM, NDM-1]; assay: Time kill study; settings: for Bacterial count: each agent at 8 mcg/ml, initial count 6.18 log CFU/ml
Experimental: (§2) Typically, freshly grown cultures were diluted to the required cell density (initial starting inoculum) in Cation adjusted Muller Hinton broth medium BD, USA). The antibacterial agents at the required concentrations were added into the culture-containing medium either alone or in combination. The samples were incubated under shaking condition (120 rpm) at 37° C. Enumeration of viable bacterial count was undertaken, every 2 hour, by diluting in normal saline and plating on to the Tryptic Soya Agar plates (BD, USA). The plates were incubated for 24 hours to arrive at the viable bacterial count. […] The decrease of 1 Log CFU/ml, after administration of combination of present invention, in comparison to initial bacterial count corresponds to 90% killing of bacteria. Similarly, 2 Log CFU/ml reductions corresponds to 99% killing of bacteria and 3 Log CFU/ml reductions is equal to 99.9% killing of bacteria.

[4] = test system: clinical isolate of K. pneumoniae S 48 producing metallo beta-lactamases [SHV, TEM, NDM-1]; assay: Time kill study; settings: for Bacterial count: each agent at 8 mcg/ml, initial count 6.84 log CFU/ml
Experimental: as §2

[5] = used alone at 8 mcg/ml, at the end of 6 hours

- MIC (P. aeruginosa S 508; S508, agent alone, enzymes VIM-11, read-out: MIC): > 32 µg/mL
- MIC (P. aeruginosa S 508; S508, with compound of Formula (I) at 8 mcg/ml, read-out: MIC (mcg/ml) of cefepime in presence of a compound of Formula (I) (8 mcg/ml)): ≤ 0.06 µg/mL
- MIC (P. aeruginosa Q-111; Q111, agent alone, enzymes OXA-4, OXA-11, read-out: MIC): > 32 µg/mL
- MIC (P. aeruginosa Q-111; Q111, with compound of Formula (I) at 8 mcg/ml, read-out: MIC (mcg/ml) of cefepime in presence of a compound of Formula (I) (8 mcg/ml)): ≤ 0.06 µg/mL
- MIC (E. coli S 33; S33, agent alone, enzymes TEM, NDM-1, read-out: MIC): > 32 µg/mL
- MIC (E. coli S 33; S33, with compound of Formula (I) at 8 mcg/ml, read-out: MIC (mcg/ml) of cefepime in presence of a compound of Formula (I) (8 mcg/ml)): ≤ 0.015 µg/mL
- MIC (P. aeruginosa S 504; S504, agent alone, enzymes VIM-6, read-out: MIC): > 32 µg/mL
- MIC (P. aeruginosa S 504; S504, with compound of Formula (I) at 8 mcg/ml, read-out: MIC (mcg/ml) of cefepime in presence of a compound of Formula (I) (8 mcg/ml)): ≤ 0.06 µg/mL
- MIC (K. pneumoniae B 77; B77, agent alone, enzymes SHV, TEM, NDM-1, read-out: MIC): > 32 µg/mL
- MIC (K. pneumoniae B 77; B77, with compound of Formula (I) at 8 mcg/ml, read-out: MIC (mcg/ml) of cefepime in presence of a compound of Formula (I) (8 mcg/ml)): ≤ 0.25 µg/mL
- MIC ([1]; H113720186, agent alone, enzymes IMP, read-out: MIC): > 32 µg/mL
- MIC ([1]; H113720186, with compound of Formula (I) at 8 mcg/ml, read-out: MIC (mcg/ml) of cefepime in presence of a compound of Formula (I) (8 mcg/ml)): ≤ 0.5 µg/mL
- MIC (P. aeruginosa S 513; S513, agent alone, enzymes VIM-6, read-out: MIC): > 32 µg/mL
- MIC (P. aeruginosa S 513; S513, with compound of Formula (I) at 8 mcg/ml, read-out: MIC (mcg/ml) of cefepime in presence of a compound of Formula (I) (8 mcg/ml)): ≤ 0.06 µg/mL
- MIC (K. pneumoniae B 88; B88, agent alone, enzymes SHV, TEM, NDM-1, read-out: MIC): > 32 µg/mL
- MIC (K. pneumoniae B 88; B88, with compound of Formula (I) at 8 mcg/ml, read-out: MIC (mcg/ml) of cefepime in presence of a compound of Formula (I) (8 mcg/ml)): ≤ 0.015 µg/mL
- MIC (K. pneumoniae M 3; M3, agent alone, enzymes SHV, CTXM, TEM, NDM-1, read-out: MIC): > 32 µg/mL
- MIC (K. pneumoniae M 3; M3, with compound of Formula (I) at 8 mcg/ml, read-out: MIC (mcg/ml) of cefepime in presence of a compound of Formula (I) (8 mcg/ml)): ≤ 0.015 µg/mL
- MIC (E. coli S 330; S330, agent alone, enzymes NDM, read-out: MIC): > 32 µg/mL
- MIC (E. coli S 330; S330, with compound of Formula (I) at 8 mcg/ml, read-out: MIC (mcg/ml) of cefepime in presence of a compound of Formula (I) (8 mcg/ml)): ≤ 0.015 µg/mL
- MIC (E. coli S 16; S16, agent alone, enzymes CMY type, TEM, DHA, read-out: MIC): > 32 µg/mL
- MIC (E. coli S 16; S16, with compound of Formula (I) at 8 mcg/ml, read-out: MIC (mcg/ml) of cefepime in presence of a compound of Formula (I) (8 mcg/ml)): ≤ 0.015 µg/mL
- MIC (E. coli S 35; S35, agent alone, enzymes TEM, NDM-1, read-out: MIC): > 32 µg/mL
- MIC (E. coli S 35; S35, with compound of Formula (I) at 8 mcg/ml, read-out: MIC (mcg/ml) of cefepime in presence of a compound of Formula (I) (8 mcg/ml)): ≤ 0.015 µg/mL
- MIC (E. coli M 44; M44, agent alone, enzymes TEM, NDM-1, read-out: MIC): > 32 µg/mL
- MIC (E. coli M 44; M44, with compound of Formula (I) at 8 mcg/ml, read-out: MIC (mcg/ml) of cefepime in presence of a compound of Formula (I) (8 mcg/ml)): ≤ 0.015 µg/mL
- MIC (K. pneumoniae S 48; S48, agent alone, enzymes SHV, TEM, NDM-1, read-out: MIC): > 32 µg/mL
- MIC (K. pneumoniae S 48; S48, with compound of Formula (I) at 8 mcg/ml, read-out: MIC (mcg/ml) of cefepime in presence of a compound of Formula (I) (8 mcg/ml)): ≤ 0.015 µg/mL
- MIC (K. pneumoniae S 50; S50, agent alone, enzymes SHV, TEM, NDM-1, read-out: MIC): > 32 µg/mL
- MIC (K. pneumoniae S 50; S50, with compound of Formula (I) at 8 mcg/ml, read-out: MIC (mcg/ml) of cefepime in presence of a compound of Formula (I) (8 mcg/ml)): ≤ 0.015 µg/mL
- MIC (K. pneumoniae NCTC 13439; NCTC13439, agent alone, enzymes VIM-1, read-out: MIC): > 32 µg/mL
- MIC (K. pneumoniae NCTC 13439; NCTC13439, with compound of Formula (I) at 8 mcg/ml, read-out: MIC (mcg/ml) of cefepime in presence of a compound of Formula (I) (8 mcg/ml)): 1 µg/mL
- MIC (E. coli S 30; S30, agent alone, enzymes CMY type, TEM, NDM-1, read-out: MIC): > 32 µg/mL
- MIC (E. coli S 30; S30, with compound of Formula (I) at 8 mcg/ml, read-out: MIC (mcg/ml) of cefepime in presence of a compound of Formula (I) (8 mcg/ml)): ≤ 0.015 µg/mL
- MICs (range over the strains) ([2]; agent alone, resistant strains of E. coli, K. pneumonia and P. aeruginosa): 16 to 64 µg/mL
- MIC values of cefepime in presence of the compound of Formula (I) (range over the strains) ([2]; with compound of Formula (I) at 8 mcg/ml): 0.015 to 1 µg/mL
SMILES: CO/N=C(\C(=O)N[C@@H]1C(=O)N2C(C(=O)[O-])=C(C[N+]3(C)CCCC3)CS[C@H]12)c1csc(N)n1 [Cefepime, cefepime]
- Bacterial count ([3]; 2 hours): 6.9 Log CFU/ml
- Bacterial count ([3]; 4 hours): 8.23 Log CFU/ml
- Bacterial count ([3]; 6 hours): 8.23 Log CFU/ml
- Change in bacterial count (in words) [3, 5]: no decrease in bacterial count was observed
- Bacterial count ([4]; 2 hours): 6.17 Log CFU/ml
- Bacterial count ([4]; 4 hours): 7.11 Log CFU/ml
- Bacterial count ([4]; 6 hours): 8.69 Log CFU/ml
- Change in bacterial count (in words) [4, 5]: no decrease in bacterial count was observed
